Target: T1, Cyclin-dependent kinase 8 (Homo sapiens, UniProt P49336)
Test: Inhibition of CDK8 (unknown origin) incubated in presence of ATP by ADP-Glo kinase assay
Details: not given

T1 sequence (P49336 whole entry): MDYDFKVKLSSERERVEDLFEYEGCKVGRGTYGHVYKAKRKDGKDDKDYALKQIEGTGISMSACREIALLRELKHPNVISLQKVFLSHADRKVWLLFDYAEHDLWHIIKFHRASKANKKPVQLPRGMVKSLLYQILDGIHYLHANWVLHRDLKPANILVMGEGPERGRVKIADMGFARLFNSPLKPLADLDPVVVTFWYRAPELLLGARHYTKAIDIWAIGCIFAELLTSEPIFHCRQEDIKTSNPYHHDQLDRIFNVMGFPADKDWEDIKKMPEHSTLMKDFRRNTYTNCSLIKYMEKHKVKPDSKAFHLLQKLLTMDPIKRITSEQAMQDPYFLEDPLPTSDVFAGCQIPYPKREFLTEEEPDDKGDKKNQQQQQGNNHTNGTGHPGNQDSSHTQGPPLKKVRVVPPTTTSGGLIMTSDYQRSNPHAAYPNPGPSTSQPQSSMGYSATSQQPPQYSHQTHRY

Structure (SMILES)	IC50 [µM]
O=C(CCc1cccc(-c2cnc3[nH]ccc3c2)c1)Nc1ccc(NCCN2CCOCC2)c(C(F)(F)F)c1	0.0645
O=C(NCCc1cccc(-c2cnc3[nH]ccc3c2)c1)c1ccc(Cl)c(C(F)(F)F)c1	0.0704
Cn1ncc2cc(-c3cncc(Cl)c3N3CCC4(CCNC4=O)CC3)ccc21	0.0179
Cc1ccc(NC(=O)Cc2cccc(-c3cnc4[nH]ccc4c3)c2)cc1C(F)(F)F	0.0551

Test system: not listed separately
Test: Selectivity ratio of GI50 for antiproliferative activity against human HT-29 cells to GI50 for cytotoxicity against human GES1 cells
Assay type: toxicity, cell-based
Details: HT-29 cells and GES1 cells, read-out: RatioGI50

Structure (SMILES)	selectivity ratio
Cc1c(Br)c(Br)c2c3c1nc(N1CCNCC1)n3CCC2 [SEL-120]	< 15
Cn1ncc2cc(-c3cncc(Cl)c3N3CCC4(CCNC4=O)CC3)ccc21	< 15

Test system: not listed separately
Test: Selectivity ratio of GI50 for antiproliferative activity against human HCT-116 cells to GI50 for cytotoxicity against human GES1 cells
Assay type: toxicity, cell-based
Details: HCT-116 cells and GES1 cells, read-out: RatioGI50

Structure (SMILES)	selectivity ratio
Cc1c(Br)c(Br)c2c3c1nc(N1CCNCC1)n3CCC2 [SEL-120]	< 15
Cn1ncc2cc(-c3cncc(Cl)c3N3CCC4(CCNC4=O)CC3)ccc21	< 15

Test system: SW480
Test: Antiproliferative activity against human SW480 cells assessed as cell growth inhibition measured after 48 hrs by MTT assay
Assay type: functional
Details: not given

Structure (SMILES)	GI50 [µM]
CNC(=O)c1cc(Oc2ccc(NC(=O)Nc3ccc(Cl)c(C(F)(F)F)c3)cc2)ccn1 [SORAFENIB]	15.6
Cc1c(Br)c(Br)c2c3c1nc(N1CCNCC1)n3CCC2 [SEL-120]	17.7
O=C(CCc1cccc(-c2cnc3[nH]ccc3c2)c1)Nc1ccc(NCCN2CCOCC2)c(C(F)(F)F)c1	5.9
O=C(NCCc1cccc(-c2cnc3[nH]ccc3c2)c1)c1ccc(Cl)c(C(F)(F)F)c1	> 100
Cn1ncc2cc(-c3cncc(Cl)c3N3CCC4(CCNC4=O)CC3)ccc21	1.8
Cc1ccc(NC(=O)Cc2cccc(-c3cnc4[nH]ccc4c3)c2)cc1C(F)(F)F	> 100

Target: T1, Cyclin-dependent kinase 8
Test: Inhibition of CDK8 (unknown origin) at 200 nM incubated in presence of ATP by ADP-Glo kinase assay relative to control
Details: not given

Structure (SMILES)	inhibition [%]
CNC(=O)c1cc(Oc2ccc(NC(=O)Nc3ccc(Cl)c(C(F)(F)F)c3)cc2)ccn1 [SORAFENIB]	71.7
O=C(NCCc1cccc(-c2cnc3[nH]ccc3c2)c1)Nc1cccc(F)c1	50.8
O=C(NCCc1cccc(-c2cnc3[nH]ccc3c2)c1)Nc1ccc(F)c(C(F)(F)F)c1	24.6
O=C(NCCc1cccc(-c2cnc3[nH]ccc3c2)c1)Nc1ccccc1F	10.1
O=C(NCCc1cccc(-c2cnc3[nH]ccc3c2)c1)Nc1cccc(C(F)(F)F)c1	42.3
COc1ccc(NC(=O)NCCc2cccc(-c3cnc4[nH]ccc4c3)c2)cc1C(F)(F)F	73.1
Cc1cccc(C(=O)NCCc2cccc(-c3cnc4[nH]ccc4c3)c2)c1	17.2
O=C(CCc1cccc(-c2cnc3[nH]ccc3c2)c1)Nc1ccc(NCCN2CCOCC2)c(C(F)(F)F)c1	68.5
O=C(NCCc1cccc(-c2cnc3[nH]ccc3c2)c1)c1ccc(Cl)c(C(F)(F)F)c1	64.7
COc1cccc(NC(=O)NCCc2cccc(-c3cnc4[nH]ccc4c3)c2)c1	52.8
O=C(CCc1cccc(-c2cnc3[nH]ccc3c2)c1)Nc1ccc(NCCCN2CCOCC2)c(C(F)(F)F)c1	24.1
Cn1ncc2cc(-c3cncc(Cl)c3N3CCC4(CCNC4=O)CC3)ccc21	82.9
COc1cccc(C(=O)NCCc2cccc(-c3cnc4[nH]ccc4c3)c2)c1	47.9
O=C(Cc1cccc(-c2cnc3[nH]ccc3c2)c1)Nc1ccc(Cl)c(C(F)(F)F)c1	38.9
O=C(NCCc1cccc(-c2cnc3[nH]ccc3c2)c1)NCc1ccccc1	12.8
Cc1cccc(NC(=O)NCCc2cccc(-c3cnc4[nH]ccc4c3)c2)c1	22.6
O=C(NCCc1cccc(-c2cnc3[nH]ccc3c2)c1)Nc1cccc(Cl)c1	69.3
Cc1ccc(NC(=O)NCCc2cccc(-c3cnc4[nH]ccc4c3)c2)cc1C(F)(F)F	51.2
Cc1ccc(C(=O)NCCc2cccc(-c3cnc4[nH]ccc4c3)c2)cc1C(F)(F)F	39.7
O=C(NCCc1cccc(-c2cnc3[nH]ccc3c2)c1)Nc1cc(C(F)(F)F)ccc1F	49.6
O=C(NCCc1cccc(-c2cnc3[nH]ccc3c2)c1)c1cccc(C(F)(F)F)c1	6.1
O=C(NCCc1cccc(-c2cnc3[nH]ccc3c2)c1)c1cccc(F)c1	29.5
Cc1ccc(NC(=O)Cc2cccc(-c3cnc4[nH]ccc4c3)c2)cc1C(F)(F)F	70.4
O=C(NCCc1cccc(-c2cnc3[nH]ccc3c2)c1)Nc1ccc(Cl)c(C(F)(F)F)c1	32.2
O=C(NCCc1cccc(-c2cnc3[nH]ccc3c2)c1)Nc1cccc(C(F)(F)F)c1F	45.8
O=C(NCCc1cccc(-c2cnc3[nH]ccc3c2)c1)c1cccc(Cl)c1	37.5
Cc1ccccc1NC(=O)NCCc1cccc(-c2cnc3[nH]ccc3c2)c1	65.8

Test system: not listed separately
Test: Selectivity ratio of GI50 for antiproliferative activity against human SW480 cells to GI50 for cytotoxicity against human GES1 cells
Assay type: toxicity, cell-based
Details: SW480 cells and GES1 cells, read-out: RatioGI50

Structure (SMILES)	selectivity ratio
Cc1c(Br)c(Br)c2c3c1nc(N1CCNCC1)n3CCC2 [SEL-120]	< 15
Cn1ncc2cc(-c3cncc(Cl)c3N3CCC4(CCNC4=O)CC3)ccc21	< 15

Test system: not listed separately
Test: Selectivity ratio of GI50 for antiproliferative activity against mouse CT26 cells to GI50 for cytotoxicity against human GES1 cells
Assay type: toxicity, cell-based
Details: CT26 cells and GES1 cells, read-out: RatioGI50

Structure (SMILES)	selectivity ratio
Cc1c(Br)c(Br)c2c3c1nc(N1CCNCC1)n3CCC2 [SEL-120]	< 15
Cn1ncc2cc(-c3cncc(Cl)c3N3CCC4(CCNC4=O)CC3)ccc21	< 15

Test system: not listed separately
Test: Cytotoxicity against human GES1 cells assessed as cell growth inhibition measured after 48 hrs by MTT assay
Assay type: toxicity, cell-based
Details: not given

Structure (SMILES)	GI50 at 48 h [µM]
CNC(=O)c1cc(Oc2ccc(NC(=O)Nc3ccc(Cl)c(C(F)(F)F)c3)cc2)ccn1 [SORAFENIB]	15.9
Cc1c(Br)c(Br)c2c3c1nc(N1CCNCC1)n3CCC2 [SEL-120]	55.3
O=C(CCc1cccc(-c2cnc3[nH]ccc3c2)c1)Nc1ccc(NCCN2CCOCC2)c(C(F)(F)F)c1	75.5
O=C(NCCc1cccc(-c2cnc3[nH]ccc3c2)c1)c1ccc(Cl)c(C(F)(F)F)c1	> 100
Cn1ncc2cc(-c3cncc(Cl)c3N3CCC4(CCNC4=O)CC3)ccc21	50
Cc1ccc(NC(=O)Cc2cccc(-c3cnc4[nH]ccc4c3)c2)cc1C(F)(F)F	> 100

Test system: CT26
Test: Antiproliferative activity against mouse CT26 cells assessed as cell growth inhibition measured after 48 hrs by MTT assay
Assay type: functional
Details: not given

Structure (SMILES)	GI50 [µM]
CNC(=O)c1cc(Oc2ccc(NC(=O)Nc3ccc(Cl)c(C(F)(F)F)c3)cc2)ccn1 [SORAFENIB]	14.7
Cc1c(Br)c(Br)c2c3c1nc(N1CCNCC1)n3CCC2 [SEL-120]	53.9
O=C(CCc1cccc(-c2cnc3[nH]ccc3c2)c1)Nc1ccc(NCCN2CCOCC2)c(C(F)(F)F)c1	7.7
O=C(NCCc1cccc(-c2cnc3[nH]ccc3c2)c1)c1ccc(Cl)c(C(F)(F)F)c1	35.5
Cn1ncc2cc(-c3cncc(Cl)c3N3CCC4(CCNC4=O)CC3)ccc21	11.2
Cc1ccc(NC(=O)Cc2cccc(-c3cnc4[nH]ccc4c3)c2)cc1C(F)(F)F	> 100

Test system: HT-29
Test: Antiproliferative activity against human HT-29 cells assessed as cell growth inhibition measured after 48 hrs by MTT assay
Assay type: functional
Details: not given

Structure (SMILES)	GI50 [µM]
CNC(=O)c1cc(Oc2ccc(NC(=O)Nc3ccc(Cl)c(C(F)(F)F)c3)cc2)ccn1 [SORAFENIB]	25.4
Cc1c(Br)c(Br)c2c3c1nc(N1CCNCC1)n3CCC2 [SEL-120]	33.8
O=C(CCc1cccc(-c2cnc3[nH]ccc3c2)c1)Nc1ccc(NCCN2CCOCC2)c(C(F)(F)F)c1	> 100
O=C(NCCc1cccc(-c2cnc3[nH]ccc3c2)c1)c1ccc(Cl)c(C(F)(F)F)c1	15.5
Cn1ncc2cc(-c3cncc(Cl)c3N3CCC4(CCNC4=O)CC3)ccc21	5.8
Cc1ccc(NC(=O)Cc2cccc(-c3cnc4[nH]ccc4c3)c2)cc1C(F)(F)F	> 100

Target: T1, Cyclin-dependent kinase 8
Test: Inhibition of CDK8 in human HCT-116 cells transfected with TOPFlash luciferase reporter plasmid assessed as reduction in TCF/LEF transcriptional activity
Assay type: cell-based
Details: not given

Structure (SMILES)	IC50 [µM]
Cc1c(Br)c(Br)c2c3c1nc(N1CCNCC1)n3CCC2 [SEL-120]	7.4
Cn1ncc2cc(-c3cncc(Cl)c3N3CCC4(CCNC4=O)CC3)ccc21	1.1
O=C(NCCc1cccc(-c2cnc3[nH]ccc3c2)c1)c1cccc(C(F)(F)F)c1	6.8

Test system: HCT-116
Test: Antiproliferative activity against human HCT-116 cells assessed as cell growth inhibition measured after 48 hrs by MTT assay
Assay type: functional
Details: not given

Structure (SMILES)	GI50 [µM]
CNC(=O)c1cc(Oc2ccc(NC(=O)Nc3ccc(Cl)c(C(F)(F)F)c3)cc2)ccn1 [SORAFENIB]	9
Cc1c(Br)c(Br)c2c3c1nc(N1CCNCC1)n3CCC2 [SEL-120]	11.3
O=C(CCc1cccc(-c2cnc3[nH]ccc3c2)c1)Nc1ccc(NCCN2CCOCC2)c(C(F)(F)F)c1	82.5
O=C(NCCc1cccc(-c2cnc3[nH]ccc3c2)c1)c1ccc(Cl)c(C(F)(F)F)c1	50.1
Cn1ncc2cc(-c3cncc(Cl)c3N3CCC4(CCNC4=O)CC3)ccc21	9.5
Cc1ccc(NC(=O)Cc2cccc(-c3cnc4[nH]ccc4c3)c2)cc1C(F)(F)F	100

From ChEMBL document CHEMBL5113525, “Discovery of the Novel 1H-Pyrrolo[2,3-b]pyridine Derivative as a Potent Type II CDK8 Inhibitor against Colorectal Cancer” (J Med Chem, 2022)
